Reference: patent US10738062B2, “Chromane-substituted tetracyclic compounds and uses thereof for the treatment of viral diseases” (Merck Sharp & Dohme Corp., priority 2016, dated 2020)

Key:
Parameters in all cases: species or system Hepatitis C virus
HCV replicon 1A = experiment: Cell-based HCV replicon assay (Replicon Assay A), replicon 1A; conditions: replicon RNA by real time PCR, day 3
Method in brief: (§1)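 Replicon cells were seeded at 2000/well with compound, 10 serial dilutions starting at 333.3 nM to 1.667 nM, in 0.5% DMSO and 5% FBS, then harvested on day 3. Replicon RNA was measured by multiplex TaqMan RT-PCR with cyclophilin as endogenous control. EC50 is the concentration raising Ct by 1 over projected baseline.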

HCV replicon 1B = experiment: Cell-based HCV replicon assay (Replicon Assay B), replicon 1B; conditions: replicon RNA by real-time PCR, 3 days
Description: In an alternate assay (“Replicon Assay B”), 1000 cells were seeded per well in a 384-well collagen coated black plate from Greiner bio-one (Cat #781946) in 5% FBS. Inhibitors of this invention were added at 24 h post-seeding, and the plates were incubated for 3 days. Cells were subsequently lysed with Qiagen lysis buffer (Cat #1062731) to extract the RNA. HCV replicon RNA level was measured by real-time PCR using the RNA-to-CT kit from Applied Biosystem (Cat #4392656) and genotype-specific primers and probes. The amplicon was located within NS5B. […] (SEQ. ID NO. 2); the probe sequence was FAM-labeled […] (SEQ. ID NO. 3).
The real-time RT-PCR reactions were run on ABI PRISM 7900HT or Viia7 Sequence Detection System using the following program: 48° C. for 30 minutes, 95° C. for 10 minutes, 40 cycles of 95° C. for 15 sec, 60° C. for 1 minutes.
EC50 data for replicons 1A, 1AY93H and 2B were obtained using Replicon Assay A and EC50 data for replicon 1B was obtained using Replicon Assay B.

HCV replicon 2B = experiment: Cell-based HCV replicon assay (Replicon Assay A), replicon 2B; conditions: read-out: EC50 replicon 2B; Replicon Assay A; replicon RNA by real time PCR, day 3
Method in brief: as §1

HCV replicon 1A Y93H = experiment: Cell-based HCV replicon assay (Replicon Assay A), replicon 1AY93H; conditions: read-out: EC50 replicon 1A Y93H; Replicon Assay A; replicon RNA by real time PCR, day 3
Method in brief: as §1

SMILES	EC50 (HCV replicon 1A; Hepatitis C virus, 72 h)	EC50 (HCV replicon 1B; Hepatitis C virus, 72 h)	EC50 (HCV replicon 2B)	EC50 (HCV replicon 1A Y93H)	EC50 (HCV replicon 1A)	EC50 (HCV replicon 1B)
COC(=O)NC(C(=O)N1[C@@H]2C[C@@H]2C[C@H]1c1ncc(-c2ccc3c(c2)cc2n3C(c3ccc4c(c3)CCCO4)Oc3cc(-c4cnc([C@@H]5CCCN5C(=O)[C@@H](NC(=O)OC)C(C)C)[nH]4)cc(F)c3-2)[nH]1)C1C[C@@H](C)O[C@@H](C)C1 (single isomer, unassigned) [Compound 65]	2.9 pM	1.8 pM	935 pM	43 pM		
COC(=O)NC(C(=O)N1CCC[C@H]1c1ncc(-c2ccc3c(c2)cc2n3C(c3ccc4c(c3)OCCC4)Oc3cc(-c4cnc([C@@H]5CCCN5C(=O)[C@@H](NC(=O)OC)C(C)C)[nH]4)cc(C)c3-2)[nH]1)C1C[C@@H](C)O[C@@H](C)C1 (single isomer, unassigned) [Compound 86]		2.7 pM	7 pM	28 pM	3 pM	
COC(=O)N[C@H](C(=O)N1CCC[C@H]1c1ncc(-c2cc(F)c3c(c2)OC(c2ccc4c(c2)OC(C)(C)C4)n2c-3cc3cc(-c4cnc([C@@H]5CCCN5C(=O)[C@@H](NC(=O)OC)C(C)C)[nH]4)ccc32)[nH]1)C(C)C (single isomer, unassigned) [Compound 28]		2.1 pM	105 pM	32 pM	1.7 pM	
COC(=O)NC(C(=O)N1CCC[C@H]1c1ncc(-c2cc(F)c3c(c2)OC(c2ccc4c(c2)OCCC4)n2c-3cc3cc(-c4cnc([C@@H]5CCCN5C(=O)[C@@H](NC(=O)OC)C5CCOCC5)[nH]4)ccc32)[nH]1)C(C)(C)F (single isomer, unassigned) [Compound 90]			157 pM	47 pM	1.7 pM	3.2 pM
COC(=O)NC(C(=O)N1CCC[C@H]1c1ncc(-c2ccc3c(c2)cc2n3C(c3ccc4c(c3)OC(C)CC4)Oc3cc(-c4cnc([C@@H]5CCCN5C(=O)[C@@H](NC(=O)OC)C(C)C)[nH]4)cc(F)c3-2)[nH]1)C1CCOC(C)(C)C1 (single isomer, unassigned) [Compound 64]			26 pM	60 pM	2.7 pM	4 pM
COC(=O)NC(C(=O)N1CCC[C@H]1c1ncc(-c2ccc3c(c2)cc2n3C(c3ccc4c(c3)OC(C)CC4)Oc3cc(-c4cnc([C@@H]5CCCN5C(=O)[C@@H](NC(=O)OC)C(C)C)[nH]4)cc(F)c3-2)[nH]1)C1C[C@@H](C)O[C@@H](C)C1 (single isomer, unassigned) [Compound 60]			25 pM	20 pM	3 pM	3.1 pM
COC(=O)N[C@H](C(=O)N1CCC[C@H]1c1ncc(-c2cc(F)c3c(c2)OC(c2ccc4c(c2)OCCC4C)n2c-3cc3cc(-c4cnc([C@@H]5CCCN5C(=O)[C@@H](NC(=O)OC)C(C)C)[nH]4)ccc32)[nH]1)C(C)C (single isomer, unassigned) [Compound 8]		1.1 pM	41 pM	38 pM	2.1 pM	
COC(=O)NC(C(=O)N1CCC[C@H]1c1ncc(-c2ccc3c(c2)cc2n3C(c3ccc4c(c3)OCCC4)Oc3cc(-c4cnc([C@@H]5CCCN5C(=O)[C@@H](NC(=O)OC)C(C)C)[nH]4)cc(F)c3-2)[nH]1)C1C[C@@H](C)O[C@H](C)C1 (single isomer, unassigned) [Compound 78]		2.6 pM	4 pM	9 pM	2.2 pM	
COC(=O)N[C@H](C(=O)N1CCC[C@H]1c1ncc(-c2ccc3c(c2)cc2n3C(c3ccc4c(c3)OCCC4)Oc3cc(-c4cnc([C@@H]5CCCN5C(=O)[C@@H](NC(=O)OC)C5CCOCC5)[nH]4)cc(F)c3-2)[nH]1)C(C)C (single isomer, unassigned) [Compound 34]			5 pM	8 pM	2.1 pM	3 pM
COC(=O)NC(C(=O)N1CCC[C@H]1c1ncc(-c2ccc3c(c2)cc2n3C(c3ccc4c(c3)OCCC4)Oc3cc(-c4cnc([C@@H]5CCCN5C(=O)[C@@H](NC(=O)OC)C(C)C)[nH]4)cc(F)c3-2)[nH]1)C1CCO[C@H](C)C1 (single isomer, unassigned) [Compound 93]	1.7 pM	2.1 pM	112 pM	671 pM		
